{"source": "patent US20250333714A1", "about": "“ARTIFICIAL DNA REPLISOME AND METHODS OF USE THEREOF” (Regents of the University of Minnesota, priority 2021, published 2025)", "molecules": {"B1": {"name": "T7 DNA polymerase: bacteriophage T7 DNA polymerase, used in the initial failed TADR (protein, UniProt P00581 1-704, looked up)", "DNA-directed DNA polymerase": "MIVSDIEANALLESVTKFHCGVIYDYSTAEYVSYRPSDFGAYLDALEAEVARGGLIVFHNGHKYDVPALTKLAKLQLNREFHLPRENCIDTLVLSRLIHSNLKDTDMGLLRSGKLPGKRFGSHALEAWGYRLGEMKGEYKDDFKRMLEEQGEEYVDGMEWWNFNEEMMDYNVQDVVVTKALLEKLLSDKHYFPPEIDFTDVGYTTFWSESLEAVDIEHRAAWLLAKQERNGFPFDTKAIEELYVELAARRSELLRKLTETFGSWYQPKGGTEMFCHPRTGKPLPKYPRIKTPKVGGIFKKPKNKAQREGREPCELDTREYVAGAPYTPVEHVVFNPSSRDHIQKKLQEAGWVPTKYTDKGAPVVDDEVLEGVRVDDPEKQAAIDLIKEYLMIQKRIGQSAEGDKAWLRYVAEDGKIHGSVNPNGAVTGRATHAFPNLAQIPGVRSPYGEQCRAAFGAEHHLDGITGKPWVQAGIDASGLELRCLAHFMARFDNGEYAHEILNGDIHTKNQIAAELPTRDNAKTFIYGFLYGAGDEKIGQIVGAGKERGKELKKKFLENTPAIAALRESIQQTLVESSQWVAGEQQVKWKRRWIKGLDGRKVHVRSPHAALNTLLQSAGALICKLWIIKTEEMLVEKGLKHGWDGDFAYMAWVHDEIQVGCRTEEIAQVVIETAQEAMRWVGDHWNFRCLLDTEGKMGPNWAICH"}, "B2": {"name": "I308V: self-evolved variant of error-prone T5 DNA polymerase with single I308V substitution; SEQ ID NO:3 (protein)", "chain": "MKIAVVDKALNNTRYDKHFQLYGEEVDVFHMCNEKLSGRLLKKHITIGTPENPFDPNDYDFVILVGAEPFLYFAGKKGIGDYTGKRVEYNGYANWIASISPAQLHFKPEMKPVFDATVENIHDIINGREKIAKAGDYRPITDPDEAEEYIKMVYNMVIGPVAFASATSALYCRDGYLLGVSISHQEYQGVYIDSDCLTEVAVYYLQKILDSENHTIVFHNLKFDMHFYKYHLGLTFDKAHKERRLHDTMLQHYVLDERRGTHGLKSLAMKYTDMGDYDFELDKFKDDYCKAHKIKKEDFTYDLIPFDVMWPYAAKDTDATIRLHNFFLPKIEKNEKLCSLYYDVLMPGCVFLQRVEDRGVPISIDRLKEAQYQLTHNLNKAREKLYTYPEVKQLEQDQNEAFNPNSVKQLRVLLFDYVGLTPTGKLTDTGADSTDAEALNELATQHPIAKTLLEIRKLTKLISTYVEKILLSIDADGCIRTGFHEHMTTSGRLSSSGKLNLQQLPRDESIIKGCVVAPPGYRVIAWDLTTAEVYYAAVLSGDRNMQQVFINMRNEPDKYPDFHSNIAHMVFKLQCEPRDVKKLFPALRQAAKRITFGILYGSGPAKVAHSVNEALLEQAAKTGEPFVECTVADAKEYIETYFGQFPQLKRWIDKCHDQIKNHGFIYSHFGRKRRLHNIHSEDRGVQGEEIRSGFNAIIQSASSDSLLLGAVDADNEIISLGLEQEMKIVMLVHDSVVAIVREDLIDQYNEILIRNIQKDRGISIPGCPIGIDSDSEAGGSRDYSCGKMKKQHPSIACIDDDEYTRYVKGVLLDAEFEYKKLAAMDKEHPDHSKYKDDKFIAVCKDLDNVKRILGA"}, "B3": {"name": "T5 DNA polymerase: DNA polymerase of bacteriophage T5, NCBI YP_006950.1, SEQ ID NO:1 (protein)", "chain": "B2 chain with A164D, A166E, V308I, R593A", "modifications": "Escherichia virus T5"}}, "key": {"[1]": {"test_system": "DNA", "conditions": "cited from earlier work"}, "[2]": {"test_system": "kanR* gene on target plasmid", "assay": "kanR* reversion assay (frequency of kanamycin-resistant colonies)", "type": "cell-based, E. coli", "method": "Three DNA elements were added to E. coli to create a targeted error-prone artificial replisome: a constitutively-expressed, chromosomal CisA gene, a target vector plasmid and a helper vector plasmid (FIG. 1A-1B and FIG. 5). The target vector contained the gene(s) of interest targeted for mutagenesis between the CisA initiation and termination sequences. To quantify the increase in mutagenesis, mutagenesis was targeted to the gene for a kanamycin resistance protein (aminoglycoside phosphotransferase (3)-IIIa). This gene, named kanR*, carried a single nucleotide substitution (A785C), which encodes an E262A amino acid substitution that inactivates the kanamycin resistance (Thompson et al., J Biol Chem, 274 (43): 30697-30706, (1999)). Mutations that reverse this substitution will restore gene function, allowing the cells to grow in the presence of kanamycin. Resistant colony-forming unit (CFU) per pl of full density culture (frequency of resistant CFU per cell plated) is used as a readout for mutagenic capacity. The helper plasmid contains a gene encoding the fusion of the error-prone T5 DNA polymerase to the Rep helicase under the control of a T7 promoter. (The host cell also contains a chromosomal gene to express the T7 RNA polymerase and a deletion of the chromosomal Rep gene to eliminate potential competition with the fusion protein.)\nThe DNA polymerase activity of the T5 DNA polymerase-Rep helicase fusion protein was measured by its capacity to mutate the target, kanR* and restore kanamycin resistance. The bacteria, in this Example, contained all three elements of the targeted error-prone artificial replisome: a constitutively-expressed, chromosomal CisA gene, the target plasmid carrying the kanR* gene flanked by the initiation and termination sequences, and the helper plasmid expressing the T5 DNA polymerase-Rep helicase fusion protein. These cells were picked from a transformation plate, propagated in liquid for ten generations to accumulate mutations and then plated onto kanamycin-containing media for selection.\nKanR* reversion assay was used. Three transformations were carried out, all into the host cell for TADR, as shown in FIG. 2C: the helper plasmid with the wildtype T5 polymerase co-transformed with the target plasmid; the helper plasmid with the error-prone T5 polymerase mutant, with the target plasmid without the recognition and termination sequences; the helper plasmid with the error-prone T5 polymerase mutant, with the target plasmid. Transformant colonies were selected on LB agar plates supplemented with 15 ng/μl chloramphenicol and 50 ng/μl ampicillin and inoculated to a liquid LB cultures with chloramphenicol and ampicillin. After overnight growth, 50 μl culture from each sample was plated on LB plates supplemented with 30 ng/μl kanamycin. After 16 h incubation at 37° C., colonies were counted."}, "[3]": {"test_system": "bacteria lacking endogenous Rep helicase", "assay": "assay of sensitivity to nalidixic acid (Rep helicase activity)", "type": "cell-based, E. coli", "conditions": "2.5 ng/μl nalidixic acid; rep- cells with helper plasmid", "method": "The Rep helicase activity of the T5 DNA polymerase-Rep helicase fusion was measured by its ability to alleviate growth retardation caused by nalidixic acid in a strain lacking endogenous Rep helicase (Henderson et al., PLOS ONE, 10 (5): e0128092, (2015)). Bacteria normally tolerate low levels of nalidixic acid, but bacteria lacking endogenous Rep helicase grow more slowly because nalidixic acid inhibits DNA gyrase and topoisomerase.\nAssay of sensitivity to nalidixic acid was used(Henderson et al., PLOS ONE, 10 (5): e0128092, (2015)). Three cell lines were prepared, namely TADR cells modified to have intact chromosomal rep, TADR cells (rep-) and TADR cells (rep-) transformed with helper plasmid (expressing the fusion protein). A Rep gene knockout mutation was P1-transduced from Keio-collection(Baba et al., Mol Syst Biol, 2 2006.0008-2006.0008, (2006)) into the host cell for using standard technique of molecular cloning(Green, (2012)). The helper plasmid was transformed into this rep-cell and selected on LB agar plate supplemented with 50 ng/μl ampicillin. From this cell line together with other two—the host cell for, its rep-derivative, single colonies were inoculated into liquid LB culture (ampicillin was added to cultures of the first cell line). […]"}, "[4]": {"test_system": "primed DNA substrate", "conditions": "cited from earlier work"}, "[5]": {"test_system": "primed DNA substrate", "assay": "association of DNA polymerase with primed DNA substrate", "type": "binding", "conditions": "local effective concentration of polymerase 0.2-0.6 mM; kon of T7 assumed", "method": "The artificial replisome must simultaneously unwind DNA and copy the exposed strand to prevent degradation of the exposed ssDNA, which causes genetic instability. In addition, DNA synthesis must avoid premature termination within the target region. Connecting Rep helicase and T5 DNA polymerase with a flexible linker increases the local effective concentrations to an estimated 0.2-0.6 mM(Li et al., Protein Sci, 27 (9): 1600-1610, (2018)) in order to achieve both of these goals. The CisA protein recruits Rep helicase to the target region and stabilizes it. Rep helicase unwinds DNA at about 144 base-pairs/s (Arslan et al., Science (New York, N.Y.), 348 (6232): 344-347, (2015)), so DNA synthesis must initiate at least that fast to proceed simultaneously. The bimolecular association rate constant of T7 DNA polymerase (kon) for primed DNA substrate is 3.6×10^7M^−1s^−1 (Luo et al., Proceedings of the National Academy of Sciences, 104 (31): 12610-12615, (2007)) and it was assumed T5 DNA polymerase associates at a similar rate. If the local effective concentration of polymerase is 0.2-0.6 mM, then the rate of association is 7200-22,000 s^−1, which far exceeds the rate of unwinding. […]"}, "[6]": {"conditions": "six-His tag linked to C-terminus; cited from earlier work"}}, "note": "Substitutions are numbered along the chain they refer to. In names and notes the source's numbering stands.", "data": [{"molecule": "E. coli PolA: E. coli DNA polymerase I, slower than Rep helicase", "values": [{"measurement": "speed of DNA unwinding or DNA synthesis", "setting": "[1]", "value": "~15", "unit": "base-pairs/s"}]}, {"molecule": "T5 DNA polymerase-Rep helicase fusion protein: T5 DNA polymerase (D164A, E166A, A593R) linked by 81-amino acid linker to Rep helicase; SEQ ID NO:22", "values": [{"measurement": "frequency of kanamycin-resistant colonies, fold over control whose target plasmid was without initiation sequence", "setting": "[2]; LB", "value": 4.2, "unit": "fold"}, {"measurement": "frequency of kanamycin-resistant colonies, fold increase over control with wildtype T5 DNA polymerase", "setting": "[2]; LB, wildtype Rep, T5 D164A, E166A, A593R", "value": 128, "unit": "fold"}, {"measurement": "increase in mutation rate from engineered 5′ UTR", "setting": "[2]; stem-loop designed into 5′ UTR of the fusion gene", "value": "up to 150 fold"}, {"measurement": "effect on nalidixic acid inhibition of growth", "setting": "[3]", "value": "partially alleviated"}]}, {"molecule": "fusion containing RepΔC33: fusion protein in which the 33 C-terminal amino acids of Rep helicase were deleted; SEQ ID NO:10", "values": [{"measurement": "frequency of kanamycin-resistant colonies, fold over control whose target plasmid was without initiation sequence", "setting": "[2]; LB", "value": 67, "unit": "fold"}, {"measurement": "increase in selectivity from RepΔC33 versus wildtype Rep", "setting": "[2]; LB", "value": 16, "unit": "fold"}]}, {"molecule": "B1", "values": [{"measurement": "targeted mutagenesis", "setting": "[2]; TADR implemented with T7 DNA polymerase", "value": "no targeted mutagenesis was seen"}, {"measurement": "bimolecular association rate constant (kon)", "setting": "[4]", "value": "3.6e+07", "unit": "M⁻¹ s⁻¹"}]}, {"molecule": "B2", "values": [{"measurement": "increase in mutation rate (kanamycin-resistant CFU) from self-evolution / I308V", "setting": "[2]; versus ancestor error-prone T5 DNA polymerase", "value": 3.2, "unit": "fold"}]}, {"molecule": "B3", "values": [{"measurement": "rate of association", "setting": "[5]", "value": "7200-22,000 s^−1"}, {"measurement": "effect of six-His tag on polymerase activity", "setting": "[6]", "value": "did not interfere with polymerase activity"}]}]}
